Source: patent US20030003451A1, “Novel G protein-coupled receptors” (priority 2000, published 2003)

Columns and labels:
nGPCR-51 = biological target: T1, nGPCR-51 (Homo sapiens, UniProt Q969V1); test: Radioligand saturation binding assay, membranes of cells transiently expressing nGPCR-51
T1 construct: expressed in transfected cells
Description: HEK 293 or COS 7 cells transiently expressing nGPCR-51, or CHO K-I cells stable expressing nGPCR-51, were grown to sub-confluence (2 days post-transfection for transients), harvested from flasks in Dulbecco's PBS and pelleted by low speed centrifugation (2500 rpm) for 10 minutes. Cell pellets were homogenized in 10 ml tissue buffer (50 mM Hepes, 10 mM MgCl2, 2 mM EGTA, 1 μg/ml aprotinin, 1 μg/ml leupeptin hemisulfate, 1 μg/ml pepstatin A, pH 7.0) using a dounce, 10 strokes. Homogenate was centrifuged at 47,000× g for 15 minutes. Membrane pellet was resuspended in 1 ml tissue buffer using the dounce, 10 strokes. An aliquot of the membrane preparation was used to determine protein concentration. For measurement of saturation binding, 10 μg of cell membranes were incubated with various concentrations of [^125I] Peptide A (iodinated by routine procedures via the Tyr residue) in 300 μl binding assay buffer (tissue buffer plus 0.15 mM Bacitracin and 0.1% ovalbumin) for 90 minutes at room temperature in 96-well plates. Non-specific binding was defined by the inclusion of 1 μM Peptide A. After the binding incubation, plates were harvested onto GF/C filters presoaked in 0.3% non-fat dry milk. […] Filter plates were then counted in a Packard Topcount™ 96-well microplate scintillation counter. Data were analyzed using GraphPad Prism (San Diego, Calif.) and Kd and Bmax values were calculated.

Untransfected cells = test: Radioligand binding assay, untransfected cells

T1 sequence (Q969V1 whole entry): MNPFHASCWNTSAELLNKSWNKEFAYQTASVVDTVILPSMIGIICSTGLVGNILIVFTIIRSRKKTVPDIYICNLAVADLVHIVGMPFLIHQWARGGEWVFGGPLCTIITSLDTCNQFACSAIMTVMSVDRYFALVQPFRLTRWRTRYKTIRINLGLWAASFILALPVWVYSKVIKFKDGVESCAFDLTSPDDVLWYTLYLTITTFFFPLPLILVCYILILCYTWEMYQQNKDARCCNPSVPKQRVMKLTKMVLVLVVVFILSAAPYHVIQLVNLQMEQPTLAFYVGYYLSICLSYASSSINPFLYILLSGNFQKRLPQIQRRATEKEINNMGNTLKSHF

Bmax (nGPCR-51; COS 7 cells transiently expressing nGPCR-51): 75 finol/mg
estimated Bmax (nGPCR-51; HEK 293 cells transiently expressing nGPCR-51): ~108 fmol/mg
SMILES: CSCC[C@@H]1NC(=O)[C@@H](NC(=O)[C@H](CCCNC(=N)N)NC(=O)[C@H](CC(C)C)NC(=O)[C@H](CCSC)NC(=O)[C@H](CC(=O)O)NC(=O)[C@H](Cc2ccccc2)NC(=O)[C@@H](N)CC(=O)O)CSSC[C@@H](C(=O)N[C@@H](Cc2c[nH]c3ccccc23)C(=O)N[C@@H](CCC(N)=O)C(=O)N[C@H](C(=O)O)C(C)C)NC(=O)[C@@H]2CCCN2C(=O)[C@H](CCCNC(=N)N)NC(=O)[C@H](Cc2ccc(O)c(I)c2)NC(=O)[C@H](C(C)C)NC(=O)[C@H](CCCNC(=N)N)NC(=O)CNC(=O)[C@H](CC(C)C)NC1=O [[^125I] Peptide A]
specific radioligand binding (Untransfected cells): no specific radioligand binding
